Measurements reported in patent US20100267697A1, “ION CHANNEL MODULATORS” (Wyeth, priority 2006, published 2010).

Molecular target: T1, human Cav2.2 (composed of the subunits α1, β3 and α2δ) (Homo sapiens, UniProt Q00975)
T1 construct: expressed in transfected cells
Assay: FLIPR assay (TSA201 cells stably transfected with human Cav2.2 and human Kir2.3, FLUO-4 Ca2+ signal, KCl depolarization)
Type: cell-based
Settings: 70 mM KCl depolarization, average value
Method: TSA201 cells stably transfected with human Cav2.2 (composed of the subunits α1, β3 and α2δ) and human Kir2.3 to enhance the FLIPR Ca^2+ signal were used. These cells were plated on 384-well collagen-coated plates (BD Bioscience, Franklin Lakes, N.J.) at a density of 2×10^4 cells/well one day prior to the FLIPR assay. […] Culture media is removed and replaced with 25 μl of the FLUO-4 dye solution and incubated for one hour at room temperature. The cell plate is then placed on the FLIPR where the dye is aspirated off and replaced with 25 μl of HBSS (Invitrogen, Carlsbad, Calif.). The HBSS is then aspirated and replaced with […] of compound which is diluted in HBSS with 1% DMSO. Compounds are incubated on the cells for 15 minutes. The cells are then depolarized with 25 μl of 140 mM KCl solution (also containing 2 mM CaCl2 and 10 mM HEPES). The final concentration of KCl on the cells is 70 mM.

T1 sequence (Q00975 whole entry): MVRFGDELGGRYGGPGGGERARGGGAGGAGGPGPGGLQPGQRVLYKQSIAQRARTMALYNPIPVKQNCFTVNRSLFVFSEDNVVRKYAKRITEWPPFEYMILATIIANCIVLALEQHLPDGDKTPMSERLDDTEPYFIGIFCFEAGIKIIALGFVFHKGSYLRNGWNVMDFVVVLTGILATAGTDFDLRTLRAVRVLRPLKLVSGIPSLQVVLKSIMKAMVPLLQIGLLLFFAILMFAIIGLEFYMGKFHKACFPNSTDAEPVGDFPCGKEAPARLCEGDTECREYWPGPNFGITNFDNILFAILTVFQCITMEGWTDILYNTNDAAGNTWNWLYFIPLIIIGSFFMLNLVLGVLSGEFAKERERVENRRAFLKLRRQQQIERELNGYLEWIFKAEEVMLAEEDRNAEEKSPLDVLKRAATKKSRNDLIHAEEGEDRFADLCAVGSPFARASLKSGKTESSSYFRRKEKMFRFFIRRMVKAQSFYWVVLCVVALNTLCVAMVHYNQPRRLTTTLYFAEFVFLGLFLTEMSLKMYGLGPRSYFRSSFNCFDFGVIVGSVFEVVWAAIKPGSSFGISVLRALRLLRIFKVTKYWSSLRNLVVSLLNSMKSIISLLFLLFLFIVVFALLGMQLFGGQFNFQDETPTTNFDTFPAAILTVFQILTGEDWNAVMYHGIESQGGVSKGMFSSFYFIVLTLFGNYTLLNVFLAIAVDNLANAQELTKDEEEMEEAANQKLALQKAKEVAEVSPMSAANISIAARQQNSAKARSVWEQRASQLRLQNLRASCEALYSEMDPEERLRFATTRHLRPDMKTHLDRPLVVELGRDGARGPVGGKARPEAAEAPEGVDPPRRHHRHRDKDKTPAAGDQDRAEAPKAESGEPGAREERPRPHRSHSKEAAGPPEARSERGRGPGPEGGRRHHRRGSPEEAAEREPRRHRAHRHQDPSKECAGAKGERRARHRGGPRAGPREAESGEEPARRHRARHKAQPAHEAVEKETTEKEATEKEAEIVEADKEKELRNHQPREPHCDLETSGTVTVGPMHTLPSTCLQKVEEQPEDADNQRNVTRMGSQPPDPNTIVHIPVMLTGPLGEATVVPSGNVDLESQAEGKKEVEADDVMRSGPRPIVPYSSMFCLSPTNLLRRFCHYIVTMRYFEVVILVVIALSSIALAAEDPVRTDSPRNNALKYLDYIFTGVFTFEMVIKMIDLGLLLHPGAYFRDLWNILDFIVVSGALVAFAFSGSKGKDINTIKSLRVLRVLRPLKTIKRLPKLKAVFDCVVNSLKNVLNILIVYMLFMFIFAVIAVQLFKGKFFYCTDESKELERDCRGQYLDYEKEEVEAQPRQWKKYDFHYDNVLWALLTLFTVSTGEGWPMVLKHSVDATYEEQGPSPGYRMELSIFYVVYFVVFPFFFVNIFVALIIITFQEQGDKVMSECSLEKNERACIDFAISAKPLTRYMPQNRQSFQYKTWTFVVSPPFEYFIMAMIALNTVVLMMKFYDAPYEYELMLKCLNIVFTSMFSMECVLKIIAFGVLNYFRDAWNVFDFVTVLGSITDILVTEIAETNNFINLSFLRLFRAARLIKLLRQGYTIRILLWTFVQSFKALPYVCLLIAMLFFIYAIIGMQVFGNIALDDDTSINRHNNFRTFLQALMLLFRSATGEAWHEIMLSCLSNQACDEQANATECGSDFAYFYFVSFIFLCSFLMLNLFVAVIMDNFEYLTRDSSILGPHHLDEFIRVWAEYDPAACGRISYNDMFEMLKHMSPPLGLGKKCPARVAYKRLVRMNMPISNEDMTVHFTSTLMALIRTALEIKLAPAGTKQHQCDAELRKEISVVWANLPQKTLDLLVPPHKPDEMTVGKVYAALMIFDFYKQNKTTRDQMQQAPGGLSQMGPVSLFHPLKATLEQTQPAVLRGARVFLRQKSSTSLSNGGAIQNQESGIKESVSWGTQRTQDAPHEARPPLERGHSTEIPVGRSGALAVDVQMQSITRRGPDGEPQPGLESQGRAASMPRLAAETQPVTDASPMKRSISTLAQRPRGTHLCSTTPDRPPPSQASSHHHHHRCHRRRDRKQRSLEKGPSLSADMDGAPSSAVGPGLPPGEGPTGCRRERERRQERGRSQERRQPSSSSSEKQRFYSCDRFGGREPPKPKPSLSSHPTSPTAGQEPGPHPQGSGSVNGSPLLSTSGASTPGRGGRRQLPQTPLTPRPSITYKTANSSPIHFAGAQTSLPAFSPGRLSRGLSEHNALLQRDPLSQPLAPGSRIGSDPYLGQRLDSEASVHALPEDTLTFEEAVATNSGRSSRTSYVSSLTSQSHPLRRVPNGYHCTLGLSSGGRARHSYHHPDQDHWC
T1 sequence (P54284 whole entry partner): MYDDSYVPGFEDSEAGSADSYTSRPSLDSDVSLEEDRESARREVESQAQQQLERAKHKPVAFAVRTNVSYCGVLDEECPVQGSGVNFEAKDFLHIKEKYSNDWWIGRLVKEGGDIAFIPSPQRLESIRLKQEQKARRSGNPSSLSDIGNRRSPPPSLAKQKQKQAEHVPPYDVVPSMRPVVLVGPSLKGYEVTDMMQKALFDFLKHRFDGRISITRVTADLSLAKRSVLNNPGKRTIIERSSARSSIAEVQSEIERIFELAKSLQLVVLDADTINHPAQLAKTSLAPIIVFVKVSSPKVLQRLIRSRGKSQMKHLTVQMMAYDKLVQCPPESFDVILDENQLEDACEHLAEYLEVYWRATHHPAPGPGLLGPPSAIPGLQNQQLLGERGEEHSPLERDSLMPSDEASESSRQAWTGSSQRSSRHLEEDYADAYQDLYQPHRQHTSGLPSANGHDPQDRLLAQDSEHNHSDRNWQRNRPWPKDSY
T1 sequence (P54289 25-946 partner limits assumed): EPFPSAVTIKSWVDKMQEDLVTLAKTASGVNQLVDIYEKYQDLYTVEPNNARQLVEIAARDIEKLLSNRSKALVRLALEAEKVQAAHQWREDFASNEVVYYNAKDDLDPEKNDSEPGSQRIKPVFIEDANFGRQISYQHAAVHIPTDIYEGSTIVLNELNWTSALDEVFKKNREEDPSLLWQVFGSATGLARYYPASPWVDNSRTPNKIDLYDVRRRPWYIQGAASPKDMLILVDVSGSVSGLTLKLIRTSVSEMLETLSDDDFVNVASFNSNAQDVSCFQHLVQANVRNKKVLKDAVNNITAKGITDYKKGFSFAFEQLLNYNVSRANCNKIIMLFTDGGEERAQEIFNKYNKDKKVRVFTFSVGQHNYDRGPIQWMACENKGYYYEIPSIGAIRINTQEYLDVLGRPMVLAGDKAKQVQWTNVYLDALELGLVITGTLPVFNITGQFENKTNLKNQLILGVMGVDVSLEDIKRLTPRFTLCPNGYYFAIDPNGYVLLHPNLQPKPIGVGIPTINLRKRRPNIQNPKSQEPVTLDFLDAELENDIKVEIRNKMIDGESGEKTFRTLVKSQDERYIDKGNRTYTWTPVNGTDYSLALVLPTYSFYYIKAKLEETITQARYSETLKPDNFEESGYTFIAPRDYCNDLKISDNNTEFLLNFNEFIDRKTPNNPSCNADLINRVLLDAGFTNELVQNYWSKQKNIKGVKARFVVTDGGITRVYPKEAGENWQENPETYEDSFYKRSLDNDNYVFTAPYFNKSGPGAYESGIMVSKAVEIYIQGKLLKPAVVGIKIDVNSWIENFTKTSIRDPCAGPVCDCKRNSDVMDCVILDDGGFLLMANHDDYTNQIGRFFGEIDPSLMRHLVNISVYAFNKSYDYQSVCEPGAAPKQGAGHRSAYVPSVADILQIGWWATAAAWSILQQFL
T1 sequence (P54289 947-1103 partner limits assumed): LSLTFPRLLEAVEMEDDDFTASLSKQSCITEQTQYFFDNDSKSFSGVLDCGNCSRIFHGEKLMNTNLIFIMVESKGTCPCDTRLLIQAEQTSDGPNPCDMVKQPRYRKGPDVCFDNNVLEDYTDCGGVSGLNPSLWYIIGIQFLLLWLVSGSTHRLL

Row | IC50 | Structure (SMILES)
1 | 3.6 µM | CC(C)(C)C(=O)N(Cc1csc(N2CCN(CCc3ccccc3)CC2)n1)c1ccc(F)cc1 [Compound 165, N-(4-fluroophenyl)-2,2-dimethyl-N-({2-[4-(2-phenylethyl)piperazin-1-yl]--1,3-thiazol-4-yl}methyl)propanamide]
2 | 19.8 µM | CN(C)CCCN1CCN(c2nc(CN(C(=O)C(C)(C)C)c3ccc(F)cc3)cs2)CC1 [Compound 166, N-[(2-{4-[3-(dimethylamino)propyl]piperazin-1-yl}-1,3-thiazol-4-yl)methyl]-N-(4-fluorophenyl)-2,2-dimethylpropanamide]
3 | 13.3 µM | CC(C)(C)C(=O)N(Cc1csc(N2CCN(C(c3ccccc3)c3ccccc3)CC2)n1)c1ccc(F)cc1 [Compound 167, N-({2-[4-(diphenylmethyl)piperazin-1-yl]-1,3-thiazol-4-yl}methyl)-N-(4-fluroophenyl)-2,2-dimethylpropanamide]
4 | 5.1 µM | CCN(c1nc(CN(C(=O)C(C)(C)C)c2ccccc2)cs1)C1CC1 [Compound 168, N-({2-[cyclopropyl(ethyl)amino]-1,3-thiazol-4-yl}methyl)-2,2-dimethyl-N-phenylpropanamide]
5 | 5.7 µM | CCN(c1nc(CN(C(=O)C(C)(C)C)c2ccccc2F)cs1)C1CC1 [Compound 169, N-({2-[cyclopropyl(ethyl)amino]-1,3-thiazol-4-yl}methyl)-N-(2-fluorophenyl)-2,2-dimethylpropanamide]
6 | 3.9 µM | CCN(c1nc(CN(C(=O)C(C)(C)C)c2cccc(F)c2)cs1)C1CC1 [Compound 170, N-({2-[cyclopropyl(ethyl)amino]-1,3-thiazol-4-yl}methyl)-N-(3-fluorophenyl)-2,2-dimethylpropanamide]
7 | 6.5 µM | CCN(c1nc(CN(C(=O)C(C)(C)C)c2ccccc2C)cs1)C1CC1 [Compound 171, N-({2-[cyclopropyl(ethyl)amino]-1,3-thiazol-4-yl}methyl)-2,2-dimethyl-N-(2-methylphenyl)propanamide]
8 | 4.3 µM | CCN(c1nc(CN(C(=O)C(C)(C)C)c2cccc(C)c2)cs1)C1CC1 [Compound 172, N-({2-[cyclopropyl(ethyl)amino]-1,3-thiazol-4-yl}methyl)-2,2-dimethyl-N-(3-methylphenyl)propanamide]
9 | 3.8 µM | CCN(c1nc(CN(C(=O)C(C)(C)C)c2ccc(C)cc2)cs1)C1CC1 [Compound 173, N-({2-[cyclopropyl(ethyl)amino]-1,3-thiazol-4-yl}methyl)-2,2-dimethyl-N-(4-methylphenyl)propanamide]
10 | 3.8 µM | CCN(c1nc(CN(C(=O)C(C)(C)C)c2ccccc2OC)cs1)C1CC1 [Compound 174, N-({2-[cyclopropyl(ethyl)amino]-1,3-thiazol-4-yl}methyl)-N-(2-methoxyphenyl)-2,2-dimethylpropanamide]
11 | 3.6 µM | CCN(c1nc(CN(C(=O)C(C)(C)C)c2ccc(OC)cc2)cs1)C1CC1 [Compound 175, N-({2-[cyclopropyl(ethyl)amino]-1,3-thiazol-4-yl}methyl)-N-(4-methoxyphenyl)-2,2-dimethylpropanamide]
12 | 7.1 µM | CCN(c1nc(CN(C(=O)C(C)(C)C)c2cccc3c2CCCC3)cs1)C1CC1 [Compound 176, N-({2-[cyclopropyl(ethyl)amino]-1,3-thiazol-4-yl}methyl)-2,2-dimethyl-N-(5,6,7,8-tetrahydronaphthalen-1-yl)propanamide]
13 | 9.3 µM | CC(C)(C)C(=O)N(Cc1csc(N2CCN(Cc3ccccc3)CC2)n1)c1ccc(F)cc1 [Compound 177, N-{[2-(4-benzylpiperazin-1-yl)-1,3-thiazol-4-yl]methyl}-N-(4-fluorophenyl)-2,2-dimethylpropanamide]
14 | 19.7 µM | CN(C)CCN1CCN(c2nc(CN(C(=O)C(C)(C)C)c3ccc(F)cc3)cs2)CC1 [Compound 178, N-[(2-{4-[2-(dimethylamino)ethyl]piperazin-1-yl}-1,3-thiazol-4-yl)methyl]-N-(4-fluorophenyl)-2,2-dimethylpropanamide]
15 | 3.9 µM | CC(C)(C)C(=O)N(Cc1csc(N(c2ccccc2)c2ccccc2)n1)c1ccc(F)cc1 [Compound 179, N-{[2-(diphenylamino)-1,3-thiazol-4-yl]methyl}-N-(4-fluorophenyl)-2,2-dimethylpropanamide]
16 | 7.9 µM | CC(C)(C)C(=O)N(Cc1csc(-c2ccccc2)n1)c1ccc(F)cc1 [Compound 180, N-(4-fluorophenyl)-2,2-dimethyl-N-[(2-phenyl-1,3-thiazol-4-yl)methyl]propanamide]
17 | 2.7 µM | CC(C)(C)C(=O)N(Cc1csc(N2CCC3(CC2)OCCO3)n1)c1ccc(F)cc1 [Compound 181, N-{[2-(1,4-dioxa-8-azaspiro[4.5]dec-8-yl)-1,3-thiazol-4-yl]methyl}-N-(4-fluorophenyl)-2,2-dimethylpropanamide]

Row | IC50 | Structure (SMILES)
18 | 8.1 µM | CC(C)(C)C(=O)N(Cc1csc(N2CCC(O)CC2)n1)c1ccc(F)cc1 [Compound 182, N-(4-fluorophenyl)-N-{[2-(4-hydroxypiperidin-1-yl)-1,3-thiazol-4-yl]methyl}-2,2-dimethylpropanamide]
19 | 2.3 µM | CC(C)(C)C(=O)N(Cc1csc(N2CCCCCC2)n1)c1ccc(F)cc1 [Compound 183, N-[(2-azepan-1-yl-1,3-thiazol-4-yl)methyl]-N-(4-fluorophenyl)-2,2-dimethylpropanamide]
20 | 1.6 µM | CC(C)(C)C(=O)N(Cc1csc(N2CCCCCCC2)n1)c1ccc(F)cc1 [Compound 184, N-[(2-azocan-1-yl-1,3-thiazol-4-yl)methyl]-N-(4-fluorophenyl)-2,2-dimethylpropanamide]
21 | 2.5 µM | CC(C)(C)C(=O)N(Cc1csc(N2CCC(CO)CC2)n1)c1ccc(F)cc1 [Compound 185, N-(4-fluorophenyl)-N-({2-[4-(hydroxymethyl)piperidin-1-yl]-1,3-thiazol-4-yl}methyl)-2,2-dimethylpropanamide]
22 | 5.6 µM | CC(C)(C)C(=O)N(Cc1csc(N2CCCC(O)C2)n1)c1ccc(F)cc1 (centres unmarked) [Compound 186, N-(4-fluroophenyl)-N-{[2-(3-hydroxypiperidin-1-yl)-1,3-thiazol-4-yl]methyl}-2,2-dimethylpropanamide]
23 | 3 µM | CC(C)(C)C(=O)N(Cc1csc(N2CCCC(CO)C2)n1)c1ccc(F)cc1 (centres unmarked) [Compound 187, N-(4-fluorophenyl)-N-({2-[3-(hydroxymethyl)piperidin-1-yl]-1,3-thiazol-4-yl}methyl)-2,2-dimethylpropanamide]
24 | 3.8 µM | CC(C)(C)C(=O)N(Cc1csc(N2CCC(C#N)CC2)n1)c1ccc(F)cc1 [Compound 188, N-{[2-(4-cyanopiperidin-1-yl)-1,3-thiazol-4-yl]methyl}-N-(4-fluorophenyl)-2,2-dimethylpropanamide]
25 | 1.6 µM | CC(C)(C)C(=O)N(Cc1csc(N2CCSCC2)n1)c1ccc(F)cc1 [Compound 189, N-(4-fluorophenyl)-2,2-dimethyl-N-[(2-thiomorpholin-4-yl-1,3-thiazol-4-yl)methyl]propanamide]
26 | 2.2 µM | CC1CC(C)CN(c2nc(CN(C(=O)C(C)(C)C)c3ccc(F)cc3)cs2)C1 (centres unmarked) [Compound 190, N-{[2-(3,5-dimethylpiperidin-1-yl)-1,3-thiazol-4-yl]methyl}-N-(4-fluorophenyl)-2,2-dimethylpropanamide]
27 | 1.9 µM | CC1CCN(c2nc(CN(C(=O)C(C)(C)C)c3ccc(F)cc3)cs2)CC1 [Compound 192, N-(4-fluorophenyl)-2,2-dimethyl-N-{[2-(4-methylpiperidin-1-yl)-1,3-thiazol-4-yl]methyl}propanamide]
28 | 3.1 µM | CC(C)(C)C(=O)N(Cc1csc(N2CCC(c3ccccc3)CC2)n1)c1ccc(F)cc1 [Compound 193, N-(4-fluorophenyl)-2,2-dimethyl-N-{[2-(4-phenylpiperidin-1-yl)-1,3-thiazol-4-yl]methyl}propanamide]
29 | 3.2 µM | CC(C)(C)C(=O)N(Cc1cnc(N2CCCCC2)s1)c1ccc(F)cc1 [Compound 194, N-(4-fluorophenyl)-2,2-dimethyl-N-[(2-piperidin-1-yl-1,3-thiazol-5-yl)methyl]propanamide]
30 | 13.8 µM | CC(C)(C)C(=O)N(Cc1ccc(N2CCOCC2)nc1)c1ccc(F)cc1 [Compound 196, N-(4-fluorophenyl)-2,2-dimethyl-N-[(6-morpholin-4-ylpyridin-3-yl)methyl]propanamide]
31 | 5.7 µM | CCN(c1nc(CN(C(C)=O)C2CCCCC2)cs1)C1CC1 [Compound 197, N-cyclohexyl-N-({2-[cyclopropyl(ethyl)amino]-1,3-thiaozl-4-yl}methyl)acetamide]
32 | 3.3 µM | CCN(c1nc(CN(C(=O)C2CCCCC2)C2CCCCC2)cs1)C1CC1 [Compound 198, N-cyclohexyl-N-({2-[cyclopropyl(ethyl)amino]-1,3-thiazol-4-yl}methyl)cyclohexanecarboxamide]
33 | 27.2 µM | CC(=O)N(Cc1csc(N2CCOCC2)n1)C1CCCCC1 [Compound 199, N-cyclohexyl-N-[(2-morpholin-4-yl-1,3-thiazol-4-yl)methyl]acetamide]
34 | 6.3 µM | O=C(C1CCCCC1)N(Cc1csc(N2CCOCC2)n1)C1CCCCC1 [Compound 200, N-cyclohexyl-N-[(2-morpholin-4-yl-1,3-thiazol-4-yl)methyl]cyclohexanecarboxamide]

Row | Structure (SMILES) | IC50
35 | CC(C)(C)C(=O)N(Cc1ccc(Cl)nc1)c1ccc(F)cc1 [Compound 195, N-[(6-chloropyridin-3-yl)methyl]-N-(4-fluorophenyl)-2,2-dimethylpropanamide] | 10.1 µM
